The results in this text go back to US20120041035A1, “LEVAMLODIPINE COMPOUND PHARMACEUTICAL COMPOSITION” (SHIHUIDA PHARMACEUTICALS GROUP (JILIN) LTD, priority 2010, published 2012).

This data set has as its system primary hypertension patients (systolic pressure ≧160 mmHg). As to the kind of experiment: Clinical use in primary hypertension patients, 8-week treatment. It counts as in vivo, human. The conditions noted are these: after 8-week treatment, levamlodipine 5.0 mg/d, chlorthalidone 25.0 mg/d; for Edema Incidence / Hypokalemia Incidence: combined 2.5 mg/d and 12.5 mg/d; for Decrease of Systolic Pressure: combined levamlodipine 2.5 mg/d and chlorthalidone 12.5 mg/d, 30 patients each. The procedure:
The selected primary hypertension patients (with a systolic pressure ≧160 mmHg) were divided into 3 groups of 30 patients each, the levamlodipine group was given levamlodipine at 5.0 mg/d; the chlorthalidone group was given chlorthalidone at 25.0 mg/d; and the combined administration group was given levamlodipine at 2.5 mg/d and chlorthalidone at 12.5 mg/d. After 8-week treatment, the decease of the systolic pressure, the edema incidence, and the hypokalemia incidence were observed.

The structures appear in SMILES notation.

As to `NS(=O)(=O)c1cc(C2(O)NC(=O)c3ccccc32)ccc1Cl` (stereo not drawn) [Chlorthalidone, 5(2,3-dihydro-1-hydroxy-3-oxo-1H-isoindol-1-yl)-2-chlorobenzenesulfonamide], the “Edema Incidence” value turned out to be 0%, the “Hypokalemia Incidence” value is recorded as 20.3% and the “Decrease of Systolic Pressure” value was 20.5 ± 8.5 mmHg.

Regarding `CCOC(=O)C1=C(COCCN)NC(C)=C(C(=O)OC)[C@@H]1c1ccccc1Cl` [Levamlodipine, 3-ethyl-5-methyl-2-(2-aminoethoxymethyl)-4-(2-chlorophenyl)-1,4-dihydro-6-methyl-3,5-pyridine dicarboxylate], the “Edema Incidence” value came to 10%, the “Hypokalemia Incidence” value is listed as 0% and the “Decrease of Systolic Pressure” value stood at 22.7 ± 7.8 mmHg.
